Measurements as given in patent US20150306045A1, “METHOD OF REGULATING CIRCADIAN RHYTHM, AND METHOD OF PREPARING CIRCADIAN RHYTHM REGULATORY AGENT” (National Institute of Advanced Industrial Science & …, priority 2012, published 2015).

Tested on: clock gene Bmall promoter in NIH3T3 cells
Assay: Bmall promoter luciferase reporter, influence on expression of circadian clock gene (Test Example 1)
Type: cell-based, mouse
Conditions: Example 1, 12.5 μM in medium, NIH3T3, vs ethanol control, FIG. 1
Experimental: The circadian rhythm regulatory agents of Examples 1 to 3 (i.e., 1,3-dihydroxy-5-n-pentadecylbenzene, alkylresorcinol-containing ethanolic bran extract, and alkylresorcinol-containing ethanolic rye extract) were evaluated for the influence on expression of circadian clock gene in accordance with the following test method.
To prepare a recombination vector, the promoter regions of a clock gene Bmall (−97 to +27 regions including the RORE sequence and the transcription initiation site) were inserted into a luciferase luminescence vector containing a PEST sequence serving as a signal for rapid degradation of expressed proteins (pGL3-dLuc, from Promega). About 5×10^5 cells of mouse fibroblast cell line NIH3T3 were inoculated into a 35 mm diameter culture dish. […]
Screening of candidate substances was performed using the culture cells. […] Then, a test substance was added to a medium containing a luciferin, (a luminescence substrate of […]), and chemiluminescence by the reporter genes was measured in real-time while continuing the cell culture. […] As a control, ethanol, which is the solvent of the test substance, was added at the same timing, and the changes in amount of luminescence were compared. Luminescence was measured for one minute at 10 minute interval using AB-2550 Kronos Dia from ATTO Corp.

For `CCCCCCCCCCCCCCCc1cc(O)cc(O)c1` [Example 1, 1,3-Dihydhroxy-5-n-pentadecylbenzene (C15:0)], the “circadian rhythm phase of Bmall expression” value was “delays the circadian rhythm phase” and the “shortening of the cycle of Bmall expression rhythm” value was 0.5 h.
